Patent publication US20200078303A1, “PHARMACEUTICAL FORMULATIONS OF SUVOREXANT” (Druggability Technologies IP HoldCo Ltd., priority 2016, published 2020)

How the values were obtained:
[1] = Rat oral pharmacokinetics at 3 mg/kg; assay type: in vivo; settings: fasted rats
Experimental: A rat study with oral administration at 3 mg/kg was performed. Two pharmaceutical formulations of the present invention, the crystalline compound and crushed BELSOMRA® tablets were administered and plasma concentrations were measured. Absorption following the administration of the pharmaceutical formulations of the present invention was immediate, while absorption for the crystalline and BELSOMRA® were slower.

[2] = cited from earlier work
human plasma proteins = settings: cited from earlier work

## Cc1ccc(-n2nccn2)c(C(=O)N2CCN(c3nc4cc(Cl)ccc4o3)CC[C@H]2C)c1 [crystalline compound]
[1]
  absorption after oral administration (in words): slower

## Cc1ccc(-n2nccn2)c(C(=O)N2CCN(c3nc4cc(Cl)ccc4o3)CC[C@H]2C)c1 [Suvorexant, [(7R)-4-(5-chloro-2-benzoxazolyl)hexahydro-7-methyl-1H-1,4-diazepin-1-yl][5-methyl-2-(2H-1,2,3-triazol-2-yl)phenyl]methanone]
[2]; 10 mg
  mean absolute bioavailability: 82%
[2]; 95% CI: 12 to 13
  mean t½: approximately 12 hours
[2]; fasted conditions
  median tmax: 2 h
  tmax range: 0.5 to 6 h
[2]; high-fat meal
  change in AUC or Cmax with high-fat meal: no meaningful change
  delay in tmax with high-fat meal: approximately 1.5 hours
[2]; human, in vivo
  mean volume of distribution: approximately 49 liters
  radiolabeled dose recovered in the feces: approximately 66%
  radiolabeled dose recovered in the urine: 23%
[2]; once-daily dosing
  accumulation: 1- to 2 fold
  time to steady-state: ≤ 3 days
[2]; range of 10-80 mg
  dose proportionality of exposure: less than strictly dose-proportional
Human plasma proteins
  bound to human plasma proteins: > 99%
